Assay results as given in ChEMBL document CHEMBL4382286, “Nongenotoxic 3-Nitroimidazo[1,2-a]pyridines Are NTR1 Substrates That Display Potent in Vitro Antileishmanial Activity” (ACS Med Chem Lett, 2019).

How the values were obtained:
Plasmodium falciparum = assay: Antiplasmodial activity against chloroquine/proguanil/pyrimethamine-resistant synchronized stage of Plasmodium falciparum K1 after 72 hrs by SYBR green1 staining based spectrophotometric method; format: functional, organism-based; conditions: K1, 72 h
[1] = Solubility of the compound in RPMI medium at 4 to 6 uM; format: physicochemical
[2] = Selectivity index, ratio of CC50 for human HepG2 cells to IC50 for promastigote stage of Leishmania donovani MHOM/IN/00/DEVI; format: toxicity; conditions: read-out: Ratio CC50/IC50
Leishmania donovani [3] = assay: Antileishmanial activity against promastigote stage of Leishmania donovani MHOM/IN/00/DEVI after 72 hrs by MTT assay; format: functional, organism-based
[4] = Cytotoxicity against human HepG2 cells after 72 hrs by MTT assay; format: cell-based
Leishmania infantum = assay: Antileishmanial activity against Leishmania infantum axenic amastigotes after 48 hrs by steady-glo luciferase reporter gene assay; format: functional, organism-based
[5] = Aqueous solubility of the compound at >12.5 uM; format: physicochemical; conditions: buffer
Leishmania donovani [6] = assay: Selectivity ratio of IC50 for wild type promastigote stage of Leishmania donovani MHOM/SD/62/1S-CL2D to IC50 for NTR1 in promastigote stage of Leishmania donovani MHOM/SD/62/1S-CL2D
Leishmania donovani [7] = assay: Antileishmanial activity against wild type promastigote stage of Leishmania donovani MHOM/SD/62/1S-CL2D after 72 hrs by resazurin dye based fluorescence assay; format: functional, organism-based
[8] = Substrate activity at NTR2 in promastigote stage of Leishmania donovani MHOM/SD/62/1S-CL2D assessed as inhibition of parasite growth after 72 hrs by resazurin dye based assay
Leishmania donovani [9] = assay: Antileishmanial activity against intracellular amastigote stage of Leishmania donovani infected in human THP1 cells after 120 hrs by giemsa staining based microscopic analysis; format: functional, organism-based; conditions: THP-1, 120 h
Leishmania donovani [10] = assay: Selectivity ratio of IC50 for NTR2 in promastigote stage of Leishmania donovani MHOM/SD/62/1S-CL2D to IC50 for NTR1 in promastigote stage of Leishmania donovani MHOM/SD/62/1S-CL2D
[11] = system: Trypanosoma brucei brucei; assay: Antitrypanosomal activity against trypomastigote stage of Trypanosoma brucei brucei AnTat 1.9 assessed as decrease in parasite viability after 69 hrs by Alamar Blue assay; format: functional, organism-based; conditions: AnTat 1.9, 69 h
[12] = Substrate activity at NTR1 in promastigote stage of Leishmania donovani MHOM/SD/62/1S-CL2D assessed as inhibition of parasite growth after 72 hrs by resazurin dye based assay
[13] = Electrochemical behavior of the compound assessed as redox potential corrected toward normal hydrogen electrode by cyclic voltammetry
Leishmania major [14] = assay: Antileishmanial activity against promastigote stage of Leishmania major MHOM/IL/81/Friedlin after 72 hrs by MTT assay; format: functional, organism-based
Leishmania major [15] = assay: Antileishmanial activity against intracellular amastigote stage of Leishmania major infected in human THP1 cells after 120 hrs by giemsa staining based microscopic analysis; format: functional, organism-based; conditions: THP-1, 120 h
[16] = Cytotoxicity against human THP1 cells after 72 hrs by MTT assay; format: cell-based; conditions: THP-1 cells
[17] = Solubility of the compound in RPMI medium at >40 uM; format: physicochemical
[18] = Aqueous solubility of the compound at >62.5 uM; format: physicochemical; conditions: buffer
Trypanosoma cruzi = assay: Antitrypanosomal activity against Trypanosoma cruzi MHOM/BR/78/Silvio cloneX10/7A epimastigotes measured after 4 days by resazurin dye based fluorescence assay; format: functional, organism-based; conditions: 96 h
[19] = Mutagenicity in Salmonella typhimurium TA100 at 62.5 to 625 uM preincubated for 1 hr followed by addition of molten top agar and measured 48 hrs post dark incubation by Ames test; format: toxicity; conditions: salmonella enterica subsp. enterica serovar typhimurium
[20] = Mutagenicity in Salmonella typhimurium TA97a at 62.5 to 625 uM preincubated for 1 hr with S9 mix followed by addition of molten top agar and measured 48 hrs post dark incubation by Ames test; format: toxicity, subcellular; conditions: salmonella enterica subsp. enterica serovar typhimurium, s9, 48 h
[21] = Mutagenicity in Salmonella typhimurium TA98 at 62.5 to 625 uM preincubated for 1 hr followed by addition of molten top agar and measured 48 hrs post dark incubation by Ames test; format: toxicity; conditions: salmonella enterica subsp. enterica serovar typhimurium
[22] = Mutagenicity in Salmonella typhimurium TA97a at 62.5 to 625 uM preincubated for 1 hr followed by addition of molten top agar and measured 48 hrs post dark incubation by Ames test; format: toxicity; conditions: salmonella enterica subsp. enterica serovar typhimurium
[23] = Mutagenicity in Salmonella typhimurium TA102 at 62.5 to 625 uM preincubated for 1 hr followed by addition of molten top agar and measured 48 hrs post dark incubation by Ames test; format: toxicity; conditions: salmonella enterica subsp. enterica serovar typhimurium
[24] = Mutagenicity in Salmonella typhimurium TA98 at 62.5 to 625 uM preincubated for 1 hr with S9 mix followed by addition of molten top agar and measured 48 hrs post dark incubation by Ames test; format: toxicity, subcellular; conditions: salmonella enterica subsp. enterica serovar typhimurium, s9, 48 h
[25] = Mutagenicity in Salmonella typhimurium TA100 at 62.5 to 625 uM preincubated for 1 hr with S9 mix followed by addition of molten top agar and measured 48 hrs post dark incubation by Ames test; format: toxicity, subcellular; conditions: salmonella enterica subsp. enterica serovar typhimurium, s9, 48 h
[26] = Mutagenicity in Salmonella typhimurium TA102 at 62.5 to 625 uM preincubated for 1 hr with S9 mix followed by addition of molten top agar and measured 48 hrs post dark incubation by Ames test; format: toxicity, subcellular; conditions: salmonella enterica subsp. enterica serovar typhimurium, s9, 48 h
Trichomonas vaginalis = assay: Antiprotozoal activity against Trichomonas vaginalis TVR87 measured after 48 hrs by trypan blue assay; format: functional, organism-based
[27] = Solubility of the compound in RPMI medium at >62.5 uM; format: physicochemical

SMILES	selectivity ratio [2]	IC50 (Leishmania donovani [3]) [µM]	CC50 at 72 h [4] [µM]	other results
O=C1C(O)=C([C@H]2CC[C@H](c3ccc(Cl)cc3)CC2)C(=O)c2ccccc21 [ATOVAQUONE]	–	–	–	IC50 (Plasmodium falciparum): 0.001 µM
O=[N+]([O-])c1c(CS(=O)(=O)c2ccccc2)nc2c(SCc3ccccc3)cc(Cl)cn12	–	–	–	solubility [1]: Insoluble
CC(C)c1ccc(Sc2cc(Cl)cn3c([N+](=O)[O-])c(CS(=O)(=O)c4ccccc4)nc23)cc1	> 15.6	1.6	> 25	solubility [1]: Insoluble
O=[N+]([O-])c1c(CS(=O)(=O)c2ccccc2)nc2c(S(=O)(=O)c3ccc(Cl)cc3)cc(Cl)cn12	–	–	> 12.5	IC50 (Leishmania infantum): 3.7 µM; solubility [5]: Insoluble; Ratio IC50 (Leishmania donovani [6]): 8; IC50 (Leishmania donovani [7]): 0.6 µM; IC50 [8]: 0.7 µM; IC50 (Leishmania donovani [9]): 1.3 µM; Ratio IC50 (Leishmania donovani [10]): 8; IC50 [11]: 1 µM; IC50 [12]: 0.08 µM; Activity [13]: -0.59 V
O=[N+]([O-])c1c(CS(=O)(=O)c2ccccc2)nc2c(Sc3ccccc3C(F)(F)F)cc(Cl)cn12	> 2.7	1.5	> 4.1	–
Cc1cccc(Sc2cc(Cl)cn3c([N+](=O)[O-])c(CS(=O)(=O)c4ccccc4)nc23)c1	> 4	1.4	> 5.6	–
O=C(O)Cc1ccc(Sc2cc(Cl)cn3c([N+](=O)[O-])c(CS(=O)(=O)c4ccccc4)nc23)cc1	> 1	65.6	> 62.5	solubility [1]: Soluble
O=[N+]([O-])c1c(CS(=O)(=O)c2ccccc2)nc2c(SCc3ccc(Br)cc3)cc(Cl)cn12	–	–	–	solubility [1]: Insoluble
O=[N+]([O-])c1c(CS(=O)(=O)c2ccccc2)nc2c(Sc3cccc(F)c3)cc(Cl)cn12	> 2.1	1.2	> 3.9	–
Cc1ccccc1Sc1cc(Cl)cn2c([N+](=O)[O-])c(CS(=O)(=O)c3ccccc3)nc12	> 1.5	1.7	> 3.9	–
C[C@@H]1[C@H](O)[C@@H](C)/C=C/C=C/C=C/C=C/C=C/C=C/C=C/[C@H](O[C@@H]2O[C@H](C)[C@@H](O)[C@H](N)[C@@H]2O)C[C@@H]2O[C@](O)(C[C@@H](O)C[C@@H](O)[C@H](O)CC[C@@H](O)C[C@@H](O)CC(=O)O[C@H]1C)C[C@H](O)[C@H]2C(=O)O [AMPHOTERICIN B]	–	–	–	IC50 (Leishmania major [14]): 0.6 µM; IC50 (Leishmania major [15]): 0.2 µM
O=[N+]([O-])c1c(CS(=O)(=O)c2ccccc2)nc2c(Sc3ccc(C(F)(F)F)cc3)cc(Cl)cn12	> 1.5	2.1	> 3.9	–
Cc1ccc(Sc2cc(Cl)cn3c([N+](=O)[O-])c(CS(=O)(=O)c4ccccc4)nc23)cc1	> 2.2	1.4	> 3.9	–
CCCCCCCCCCCCCCCCOP(=O)([O-])OCC[N+](C)(C)C [MILTEFOSINE]	–	–	–	CC50 at 72 h [16]: > 40 µM; solubility [17]: Insoluble
Nc1c(CS(=O)(=O)c2ccccc2)nc2c(Sc3ccc(Cl)cc3)cc(Cl)cn12	–	–	> 62.5	IC50 (Leishmania infantum): 31.6 µM; IC50 (Leishmania donovani [9]): 124 µM; IC50 [11]: 10.6 µM; solubility [18]: Insoluble
O=[N+]([O-])c1c(CS(=O)(=O)c2ccccc2)nc2c(Sc3ccccc3Cl)cc(Cl)cn12	> 3.6	1.4	> 5	–
O=[N+]([O-])c1c(CS(=O)(=O)c2ccccc2)nc2c(Sc3cccc(Cl)c3)cc(Cl)cn12	> 3.6	0.7	> 3.9	–
COc1ccccc1Sc1cc(Cl)cn2c([N+](=O)[O-])c(CS(=O)(=O)c3ccccc3)nc12	> 21.7	2.3	> 50	–

SMILES	selectivity ratio [2]	IC50 (Leishmania donovani [3]) [µM]	CC50 at 72 h [4] [µM]	other results
O=C(Cn1ccnc1[N+](=O)[O-])NCc1ccccc1 [BENZNIDAZOLE]	–	–	–	IC50 (Trypanosoma cruzi): 1.2 µM
COc1cccc(Sc2cc(Cl)cn3c([N+](=O)[O-])c(CS(=O)(=O)c4ccccc4)nc23)c1	> 6.8	2.3	> 15.6	solubility [1]: Insoluble
O=[N+]([O-])c1c(CS(=O)(=O)c2ccccc2)nc2c(SCc3ccc(Cl)cc3)cc(Cl)cn12	–	–	–	solubility [1]: Insoluble
CC1CS(=O)(=O)CCN1/N=C/c1ccc([N+](=O)[O-])o1 (stereo not given) [NIFURTIMOX]	–	–	–	IC50 (Trypanosoma cruzi): 0.3 µM
O=[N+]([O-])c1c(CS(=O)(=O)c2ccccc2)nc2c(Sc3ccccc3F)cc(Cl)cn12	> 4.2	1.2	> 5	–
CSc1ccc(OCc2ncc([N+](=O)[O-])n2C)cc1 [FEXINIDAZOLE]	–	–	> 200	CC50 at 72 h [16]: > 62.5 µM; IC50 (Leishmania donovani [9]): > 50 µM; IC50 (Trypanosoma cruzi): 8.9 µM
O=[N+]([O-])c1c(CS(=O)(=O)c2ccccc2)nc2c(Sc3cc(Cl)ccc3Cl)cc(Cl)cn12	> 1.5	1.3	> 3.9	–
O=[N+]([O-])c1c(CS(=O)(=O)c2ccccc2)nc2c([S+]([O-])c3ccc(Cl)cc3)cc(Cl)cn12 (stereo not given)	–	–	> 12.5	Activity [19]: Non-Toxic; Activity [20]: Non-Toxic; Activity [21]: Non-Toxic; IC50 (Leishmania infantum): 1.6 µM; Activity [22]: Non-Toxic; solubility [5]: Insoluble; Activity [23]: Non-Toxic; IC50 (Leishmania donovani [9]): 1.3 µM; Activity [24]: Non-Toxic; IC50 [11]: 0.6 µM; Activity [25]: Non-Toxic; Activity [26]: Non-Toxic; Activity [13]: -0.61 V
O=[N+]([O-])c1c(CS(=O)(=O)c2ccccc2)nc2c(Sc3ccccc3)cc(Cl)cn12	> 2.3	1.7	> 3.9	–
Cc1ncc([N+](=O)[O-])n1CCO [METRONIDAZOLE]	–	–	–	IC50 (Trichomonas vaginalis): 4.2 µM
O=[N+]([O-])c1c(CS(=O)(=O)c2ccccc2)nc2c(Sc3cccc(Cl)c3Cl)cc(Cl)cn12	> 12.5	2	> 25	solubility [1]: Insoluble
N=C(N)c1ccc(OCCCCCOc2ccc(C(=N)N)cc2)cc1 [PENTAMIDINE]	0.4	–	–	–
O=[N+]([O-])c1c(CS(=O)(=O)c2ccccc2)nc2c(Sc3cccc(C(F)(F)F)c3)cc(Cl)cn12	> 2.4	1.3	> 3.9	–
O=[N+]([O-])c1c(CS(=O)(=O)c2ccccc2)nc2c(Sc3ccc(Cl)cc3Cl)cc(Cl)cn12	> 2.2	1.7	> 3.9	–
O=[N+]([O-])c1c(CS(=O)(=O)c2ccccc2)nc2c(Sc3ccc(Br)cc3)cc(Cl)cn12	> 62.5	1	> 62.5	solubility [1]: Soluble; IC50 (Leishmania major [14]): 1.3 µM; IC50 (Leishmania major [15]): 5 µM; IC50 (Leishmania infantum): 9 µM; CC50 at 72 h [16]: > 62.5 µM; IC50 (Trichomonas vaginalis): 4.6 to 5 µM; IC50 (Leishmania donovani [9]): 3.5 µM; IC50 (Trypanosoma cruzi): 6.2 µM; IC50 [11]: 3.8 µM; solubility [27]: Insoluble
COc1ccc(Sc2cc(Cl)cn3c([N+](=O)[O-])c(CS(=O)(=O)c4ccccc4)nc23)cc1	> 41.7	1.5	> 62.5	solubility [1]: Soluble
COc1ccc(CSc2cc(Cl)cn3c([N+](=O)[O-])c(CS(=O)(=O)c4ccccc4)nc23)cc1	–	–	–	solubility [1]: Insoluble
O=[N+]([O-])c1c(CS(=O)(=O)c2ccccc2)nc2c(Sc3ccc(F)cc3)cc(Cl)cn12	> 3.8	1.3	> 5	–
